Here are results for 24 substances from patent US7196163B2, “Assays using amyloid precursor proteins with modified β-secretase cleavage sites to monitor β-secretase activity” (Merk & Co., Inc., priority 2001, dated 2007).

Ends that are not written are not given here. coumarin = not defined here

For assay [1], the system named is anti-EVEFR antibodies. Kind of assay: ORIGEN non-sandwich competition of peptides with binding of ruthenylated anti-EVEFR antibodies to biotinylated EVEFR. Also noted: species or system rabbit. The note with it: peptide added over a broad concentration range; FIGS. 3A, 3B. Here is the method:
Antibody specificity also was evaluated for both lots. An ORIGEN Analyzer (described below) was utilized in a non-sandwich assay to compare the ability of related polypeptides to compete with the binding of ruthenylated anti-EVEFR antibodies to biotinylated EVEFR (SEQ. ID. NO. 58). Certain peptides and conjugated peptides were added as treatments over a broad concentration range, and competitive titrations were made. […] The normal antigen is not acetylated.
Additionally, the specificity of the antibody raised against the EVEFR (SEQ.ID.NO.:58) sequence is tight enough that a conservative change in the epitope presented to the antibody, namely DVEFR(SEQ ID. NO. 60) where the NH-terminus E is conservatively changed to D, the antibody would only recognize the bona fide cleavage product. When measuring products in a cell-based environment, where thousands and perhaps millions of different proteins and epitopes are presented to the antibody, such specificity is required for the absolute measurement of the specific BACE cleavage product. Overall, the polyclonal rabbit antibodies raised against EVEFR (SEQ.ID.NO.:58) are shown to be sufficiently specific for use in detection analyses.
In certain embodiments the antibodies of the present invention are used in an electrochemiluminescence (ECL) detection method known in the art as “Origen” technology (Yang et al., 1994, Bio/Technology 12:193–194; Khorkova et al., 1998. Journal of Neuroscience Methods 82:159–166), and an Origen 1.5 Analyzer (Igen Inc., Gaithersburg, Md.). In embodiments using this ECL-based ORIGEN technology, each purified antibody lot is derivatized to a ruthenium tris-bipyridyl compound. The following provides one example of one of such embodiments.

The test system of assay [2] is HEK293T cells. Put plainly: Aβ (IP/Western) and sAPP (Western) produced by APP β-site mutants transiently transfected into HEK293T cells. The class given is cell-based. The conditions noted are these: for Aβ level / sAPP level: transfected into 293T cells; for sAPP level: Western blot with LN27; for Aβ production compared with Swedish mutant and wild type APP695: HEK293T cells. The source says:
In order to assess the relative suitability of modified β-secretase substrates as substrates that are more reactive than the wild type KMDA cleavage site, plasmid DNA constructs were made expressing 21 different modified β-secretase cleavage site sequences. Table 1, below, summarizes data obtained from most of these modified β-secretase substrates in HEK293T cells. The HEK293T cells were transfected with plasmids containing the genetic sequences for the APP695 polypeptides that contain each of these beta-site substitutions. These plasmids were prepared using the method described above in Example 1. Transient transfection was performed using LipofectaminePlus reagent (Gibco/BRL, Rockville, Md.) according to the instructions of the manufacturer. Media was harvested 48 hrs post transfection. Then Western blot analysis was used to determine levels of sAPP and IP/Western to determine levels of Aβ. Several volumes of conditioned media, 20 μl, 10 μl, 5 μl, 2.5 μl, from the transiently transfected cells were run on 10% SDS-PAGE gels and transferred to PVDF for the measurement of sAPP. Each blot contained a titration of wild type APP transfected conditioned media to normalize for any experimental variations derived from transferring of the gels and western blot detection. The blots were then probed with the antibody LN27 (Zymed, Calif.) to detect the secreted APP, sAPP. Densitometry of each western blot determined the relative amount of total APP expressed in each transfection.
To determine the levels of Aβ, each of the conditioned media was immuno-precipitated and analyzed via the following method. 5 μg of monoclonal antibody G2-10 (a monoclonal antibody that immunologically binds to the carboxyl end of Aβ40, licensed from University of Heidelberg) was added to 1 ml of each conditioned media. The mixture was rotated overnight at 4° C. for 16 hours. 25 μl of a 50% slurry of Protein A sepharose Fast flow beads (Amersham, N.J.) was added and incubation continued, rotating, for 2 hours at 4° C. The beads were pelleted and the supernatant was removed. The beads were washed once with 1 ml PBS. This material was then run on SDS-Tricine gels for analysis. 20 μl of 2×tricine loading buffer was added to the pellet and the mixture was heated at 95° C. for 5 minutes. A pipette tip was used to mix and load the whole mixture (beads included) onto a Bio-Rad 10–20% Tricine gel. The gels were electrophoresed at 125 Volts for 2 hours and 15 minutes and then transferred onto 0.2 μm nitrocellulose backed by a 0.1 μm nitrocellulose membrane for 75 minutes at 100V constant. Blots were then washed in PBS and boiled in PBS for 5 minutes before blocking in PBS plus 0.05% Tween-20 (PBST) with 5% non-fat milk for 60 minutes at room temperature. The milk was washed off twice with PBST and the blots were incubated overnight at 4° C. with G2-10 in PBST (1:1000 dilution). Blots were washed five times for 5 minutes each with large volumes of PBST and the secondary antibody of Goat anti-mouse IgG2b-HRP (Southern Biotechnology Associates, Inc., Birmingham, Ala.) was added at 1:5000 in PBST-5% milk and incubated, rocking, for 1 hour at room temperature. The blots were again washed, five times for 10 minutes each in large volumes of PBST. The substrate Pico ECL (Pierce) was added for 5 minutes and the blots were exposed to Kodak BioMax film. After western analysis was complete, the bands were quantitated by densitometry. For both the sAPP and the Aβ, the GFP control plasmid transfection serves as the background reference level (1×).

Assay [3] relates to immortalized β-secretase-/-mouse fibroblast cells. Kind of assay: Aβ production after transfection into immortalized β-secretase-/- mouse fibroblast cells, with or without human β-secretase. Format: cell-based. The note with it: no β-secretase co-transfected. From the text:
Production of Aβ in β-secretase-/-cells could be rescued by co-transfection of the APP-derived polypeptides comprising modified β-secretase cleavage site sequences with human β-secretase.

Assay [4] concerns 2081 antibody. Put plainly: Competition of peptides against biotinylated-SEVNF for binding of the 2081 antibody. Also noted: species or system rabbit. As for the experimental part: To determine the specificity of the 2081 antibody, competition experiments against the biotinylated-SEVNF with the following peptides were performed: SEVNF, SEVN, SEVNFE, SEVNL, and SEVNLD. The experiment was performed similar to the experiment outlined in Example 2 to determine the specificity of antibody 2081.

The target in assay [5] is BACE 1 (Homo sapiens, UniProt P56817). Kind of assay: Homogeneous end point HPLC assay of BACE 1 cleavage of coumarin substrate. The class given is biochemical. Here is the method: A typical reaction contains 2 nM enzyme, 1.0 μM of the substrate, and buffer (50 mM NaOAc, pH 4.5, 0.1 mg/ml BSA, 0.2% CHAPS, 15 mM EDTA and 1 mM deferoxamine) in a total reaction volume of 100 μL. The reaction is proceeded for 30 min and the reaction is stopped by the addition of 25 μL of 1 M Tris-HCl, pH 8.0. The resulting reaction mixture was loaded on the HPLC and the product was separated from substrate with 5 min linear gradient. […] The enzyme used in these studies was soluble (transmembrane domain and cytoplasmic extension excluded) human protein produced in a baculovirus expression system. […] All experiments were conducted at room temperature using the standard reaction conditions described above. To determine the IC50 of the compound, four parameters equation is employed for curve fitting.
Chain of BACE 1 (P56817 46-457 limits assumed): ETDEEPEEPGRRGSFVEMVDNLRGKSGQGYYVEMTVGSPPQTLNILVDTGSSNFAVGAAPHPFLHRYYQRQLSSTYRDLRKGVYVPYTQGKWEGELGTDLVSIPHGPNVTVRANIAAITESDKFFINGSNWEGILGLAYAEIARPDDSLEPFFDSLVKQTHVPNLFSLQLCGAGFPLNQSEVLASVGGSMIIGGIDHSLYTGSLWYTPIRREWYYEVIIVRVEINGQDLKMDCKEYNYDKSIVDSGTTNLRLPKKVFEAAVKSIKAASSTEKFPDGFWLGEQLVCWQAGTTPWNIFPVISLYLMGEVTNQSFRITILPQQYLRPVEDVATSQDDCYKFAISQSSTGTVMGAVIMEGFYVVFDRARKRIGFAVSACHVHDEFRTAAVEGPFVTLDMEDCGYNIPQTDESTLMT

Consider “DAEFR (peptide for use in antibody specificity evaluation)”, for which the “competition with biotinylated EVEFR for anti-EVEFR binding” value (“competition with biotinylated EVEFR” for short) in assay [1] was “unable to compete for binding”.

For the substance “DVEFR (peptide for use in antibody specificity evaluation)”, in assay [1], the “competition with biotinylated EVEFR” value is reported as “somewhat higher level of interference”.

On to “EVEFR (peptide simulating cleaved portion from carboxy side of novel sequence at known enzyme cleavage site) [penta-peptide at the amino-terminal end of CTFβ from NFEV or FFEV substrates]”, for which the “competition with biotinylated EVEFR” value in assay [1] was “competed with biotinylated EVEFR”.

As to “FFAV: APP695-derived polypeptide with FFAV at the β-secretase cleavage site”, in assay [2], the Aβ level result is recorded as “below the limit of detection” and the sAPP level result was “below the limit of detection”.

For the substance “KFAA: APP695-derived polypeptide with KFAA at the β-secretase cleavage site”, in assay [2], the Aβ level entry is reported as “below the limit of detection” and the sAPP level result is recorded as “below the limit of detection”.

In the case of “KYAA: APP695-derived polypeptide with KYAA at the β-secretase cleavage site”, in assay [2], the Aβ level result is recorded as “below the limit of detection” and the sAPP level result is listed as “below the limit of detection”.

“NFAV: APP695-derived polypeptide with NFAV at the β-secretase cleavage site”: in assay [2], the Aβ level result was “below the limit of detection” and the sAPP level result is on record as “below the limit of detection”.

In the case of “NFDV: APP695-derived polypeptide with NFDV at the β-secretase cleavage site”, in assay [2], the Aβ level entry is “below the limit of detection” and the sAPP level entry was “below the limit of detection”.

For the substance “NFEA: APP695-derived polypeptide with NFEA at the β-secretase cleavage site”, in assay [2], the Aβ level entry is listed as “below the limit of detection” and the sAPP level result is reported as “below the limit of detection”. Further, in assay [3], the “production of Aβ” value is recorded as “no production of Aβ was observed”.

Take “NFEV: APP695-derived polypeptide with NFEV at the P2-P1-P1′-P2′ β-secretase cleavage site”: the “Aβ production compared with Swedish mutant and wild type APP695” value in assay [2] was “high levels of Aβ, comparable to that generated by the APP Swedish mutant”. Further, the “rate of cleavage relative to similar substrate with wild-type KMDA sequence” value in assay [2] (in an APP backbone, expressed in tissue culture cells) is 15–20 times. Further, the “production of Aβ” value in assay [3] was “no production of Aβ was observed”.

Turning to “NFTV: APP695-derived polypeptide with NFTV at the β-secretase cleavage site”, in assay [2], the Aβ level result is reported as “below the limit of detection” and the sAPP level result is “below the limit of detection”.

With “NLDV: APP695-derived polypeptide with NLDV at the β-secretase cleavage site”, in assay [2], the “Aβ production compared with Swedish mutant and wild type APP695” value was “over three times the level of wild type APP695”. In addition, the “Aβ Level produced by APP β-site mutants in HEK293T cells” value in assay [2] (media 48 hrs post transfection, IP/Western with G2-10, densitometry, GFP control = 1X) was 10–15X. In assay [3], the “production of Aβ” value is reported as “no production of Aβ was observed”.

In the case of “NYAA: APP695-derived polypeptide with NYAA at the β-secretase cleavage site”, in assay [2], the Aβ level result was “below the limit of detection” and the sAPP level result is “below the limit of detection”.

As to “NYDV: APP695-derived polypeptide with NYDV at the β-secretase cleavage site”, in assay [2], the Aβ level result was “below the limit of detection” and the sAPP level result is recorded as “below the limit of detection”.

With “NYEA: APP695-derived polypeptide with NYEA at the β-secretase cleavage site”, in assay [2], the Aβ level entry is “below the limit of detection” and the sAPP level result is listed as “below the limit of detection”.

Turning to SEVN, in assay [4], the “competition against biotinylated-SEVNF for binding of the 2081 antibody” value (from here on “competition against biotinylated-SEVNF”) was “could not compete”.

Regarding “SEVNF (SEVNF-OH) [five C-terminal amino acids of the modified sAPPβ fragment]”, the “competition against biotinylated-SEVNF” value in assay [4] is “could compete”.

For the substance SEVNFE, the “competition against biotinylated-SEVNF” value in assay [4] is reported as “could not compete”.

Regarding SEVNL, the “competition against biotinylated-SEVNF” value in assay [4] is given as “limited amount of competition”. For the same substance, the “effectiveness of competition relative to SEVNF” value in assay [4] (less effective than SEVNF) worked out at 100 fold.

As for SEVNLD, in assay [4], the “competition against biotinylated-SEVNF” value is “could not compete”.

Consider “VEFR (peptide simulating cleaved portion from carboxy side of novel sequence at known enzyme cleavage site, lacking end amino acid)”, for which the “competition with biotinylated EVEFR” value in assay [1] is on record as “slight competitive interference”.

With acetylated-EVEFR (Ac-EVEFR), in assay [1], the “competition with biotinylated EVEFR” value was “does not bind well to the antibody”.

As to coumarin-CO-REVNFEVEFR, in assay [5] (2 nM enzyme, 1.0 μM substrate, 30 min, pH 4.5, room temperature), the “substrate processed by BACE 1” value is reported as “less than 10%”. In addition, in assay [5] (cannot be determined due to limit of solubility of the substrate), the Michaelis-Menten constant (Km) is > 100 µM.

Regarding “coumarin-bound deca-peptide: coumarin-bound deca-peptide including the EVEFR sequence; possibly coumarin-CO-REVNFEVEFR (coumarin-REVNFEVEFR; not fully specified; printed as coumarin-CO-REVNFEVEFR; reading uncertain)”, in assay [1], the “competition with biotinylated EVEFR” value is listed as “did not compete well”.
